# In US20250073338A1, “CONJUGATE COMPOUNDS AND COMPOSITIONS” (REZUBIO PHARMACEUTICALS CO., LTD, priority 2023, published 2025):
# Where a name gives a salt, the structure may show the parent alone.
# Assays:
# GPR40 = target: T1, GPR40 (Homo sapiens, UniProt O14842); test: IP1 accumulation assay in HEK293 cells stably expressing GPR40; assay type: cell-based; details: HEK293 cells stably expressing GPR40, 2 hours at 37° C.
# T1 construct: expressed in transfected cells
# Method: IP1 accumulation assay was used to evaluate the potency of compounds. HEK293 cells stably expressing GPR40 were cultured in 5% CO2 incubator (ThermoFisher) in maintenance media (Dulbecco's modified Eagle's medium with 4.5 g/L of glucose, 10% fetal bovine serum, 100 μg/mL Hygromycin, and Penicillin (100 U/mL)/Streptomycin (100 μg/mL)) till 100% confluency. Cells were harvested freshly, spun down at 300× g for 5 min, and resuspended in pre-warmed 1× stimulant buffer from Cisbio IP-One HTRF Detection kit (Cisbio). Cell density was adjusted to 2.0×10^6 cells/mL. DMSO was used as blank control and AMG-1638 (CAS #: 1142214-62-7) as positive control. Compounds were prepared at 10 mM in DMSO and 5 nL of 3× serially diluted compounds (10 concentrations) were added to each well of the 384-LDV assay plate (Corning) by using ECHO 550 (Labcyte). Five μL of cells in suspension were transferred into each well by using Multidrop Combi Reagent Dispenser (ThermoFisher). Assay plate was then sealed and incubated at 37° C. for 2 hours. IP-d2 reagent and anti-IP1 reagent were prepared following the manual (Cisbio). Five μL of IP1-d2 and then 5 μL of anti-IP1 antibody was added to each well sequentially. Assay plate was incubated at room temperature for 60 min and then read at 665 nm/615 nm on an Envision plate reader (PerkinElmer). The ratio of values obtained at 665 nm and 615 nm was used for calculation of IP1 accumulation: % Effect=(Ratiosample−Ratioblank)/(RatioAMG-1638−Ratioblank)×100. Dose curve was fitted and EC50 of each compound was calculated by using XLFit.
# [1] = Pharmacokinetics in mice (IV and PO), plasma LC-MS/MS; assay type: in vivo, Male ICR (CD-1) mice; details: for Cl / AUC / half-life / Vd: IV (1 mpk); for AUC / half-life / Vd / Cmax / Tmax / bioavailability: male, ICR (CD-1), mouse, plasma; for AUC / half-life / Vd: 1 mg/kg; for half-life: read-out: T½ (converted); for Vd: read-out: Vss; for Cmax / Tmax / bioavailability: 10 mg/kg, PO (10 mpk); for bioavailability: oral bioavailability
# Method: Male ICR (CD-1) mice at around 4-6 weeks with body weight of around 25 grams (n=3) were purchased from VT-River (Zhejiang, China). After 1-week acclimation, animals were dosed with exemplary compounds intravenously at 1 mpk or orally at 10 mpk (0.5% methylcellulose in PBS as vehicle for both routes of administration). Blood samples (30 μL) were collected via saphenous vein puncture at 5 (IV only), 15, 30, 60, 120, 240, 480, and 1440 min post dose. The blood samples were saved in 0.5 M K2EDTA coated tubes and centrifuged at 4,600 rpm at 4° C. for 5 min. Plasma samples were collected and stored in −80° C. till PK analysis.
# Take 10 μL of K2EDTA-treated plasma samples of CD-1 mice, add 200 μL of precipitation solution with internal standard (5 ng/mL Terfenadine in MeOH/ACN), mix well by vortexing for 1 min at room temperature followed by centrifuge at 4° C. and 4000 rpm for 15 min. Save the supernatant as injection for LC-MS/MS quantification of exemplary compounds in plasma samples of mice.
# Establish a standard curve before and after each analytical batch, accompanied by quality controls of low, medium, and high concentrations. The number of quality control samples is not less than 6 and should be equal to or more than the number of samples of each batch, and interspersed in sample measurement. Standard curve and quality control samples of each batch must meet the acceptance criteria.
# C57BL/6 mice = test: oGTT study (oral glucose tolerance test); assay type: in vivo, Male C57BL/6 mice; details: 30 mpk oral gavage, blood glucose AUC 0-120 minutes after 5 g/kg glucose challenge
# Method: (§1) Male C57BL/6 mice were purchased from Zhejiang Vital River Laboratories Co., Ltd (a branch of Charles River Laboratories) at around 7-8 weeks of age (n=8). Animal were kept under regular light/dark cycle (12 h light: 12 h dark, L^D) at room temperature and fed regular chow diet and tap water ad libitum in facility for more than one week. On study day, animals were fasted by removing food at 7:00 AM. Blood glucose was measured at 9:00 AM by a glucometer (Roche) via tail bleeding and mice were sorted to groups of treatment based on average blood glucose (˜[…]). The vehicle (0.5% methylcellulose) or exemplary compounds solutions (30 mpk dose) were mixed well and dosed by oral gavage (dosing volume=10 ml/kg body weight). At 1:00 PM, blood glucose was measured by a glucometer (0 min). Animals were then PO dosed with 5 g/kg glucose for oral glucose challenge. Blood glucose was then measured at 20, 40, 60, and 120 min by glucometer. At the end of study, 50 μl tail blood from treatment groups were collected and mixed with 4% sodium citrate (vol 9:1). Tubes were centrifuged in a benchtop centrifuge for 10 min at 8,000 RPM at 4° C. Plasma samples were separated and stored in −80° C. freezer for measurements of PK by LC-MS/MS.
# [2] = Plasma drug concentration at end of oGTT study by LC-MS/MS; assay type: in vivo, Male C57BL/6 mice; details: male, C57BL/6, mouse, 30 mpk oral, 6 h post dose, read-out: Drug conc
# Method: as §1
# T1 sequence (O14842 whole entry): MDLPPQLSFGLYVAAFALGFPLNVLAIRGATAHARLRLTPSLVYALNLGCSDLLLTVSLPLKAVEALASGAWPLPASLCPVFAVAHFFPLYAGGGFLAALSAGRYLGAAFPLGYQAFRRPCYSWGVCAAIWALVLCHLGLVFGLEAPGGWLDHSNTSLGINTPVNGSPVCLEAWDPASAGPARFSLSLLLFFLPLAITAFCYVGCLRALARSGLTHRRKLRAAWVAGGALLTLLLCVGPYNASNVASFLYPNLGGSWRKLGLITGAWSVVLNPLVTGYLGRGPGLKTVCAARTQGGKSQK
EC50 (GPR40),Cl [1],Vd [1],SMILES,also measured
2140 pM,0.22 ml/mL/kg,0.14 L/kg,COc1ccc(C(=O)N(CC(C)(C)CCCCCCCCCCCCCCCCCCCC(=O)NCC[N+](C)(CC(=O)NCCN)CC(=O)NCCN)c2cccc(C)n2)c(N2CCC(COc3cc([C@@H](CC(=O)O)C4CC4)ccn3)CC2)c1 [Example 4],AUC [1]: 54.1 µM·h; half-life [1]: 8.2 h; Cmax [1]: 66.1 nM; Tmax [1]: 5.3 h; bioavailability [1]: 0.16%
170 pM,0.15 ml/mL/kg,0.1 L/kg,COc1ccc(C(=O)N(CC(C)(C)CCCCCCCCCCCCCCCCCC(=O)NCCC[N+](C)(CC(=O)NCCN)CC(=O)NCCN)c2cccc(C)n2)c(N2CCC(COc3cc([C@@H](CC(=O)O)C4CC4)ccn3)CC2)c1 [Example 12],AUC [1]: 33.9 µM·h; half-life [1]: 8.9 h; Cmax [1]: 80.7 nM; Tmax [1]: 5.3 h; bioavailability [1]: 0.17%
760 pM,0.14 ml/mL/kg,0.07 L/kg,COc1ccc(C(=O)N(CC(C)(C)CCCCCCCCCCCCCCCCCCCC(=O)NCCCN(CC(=O)O)CC(=O)O)c2cccc(C)n2)c(N2CCC(COc3cc([C@@H](CC(=O)O)C4CC4)ccn3)CC2)c1 [Example 13],AUC [1]: 88.9 µM·h; half-life [1]: 6.5 h; Cmax [1]: 268 nM; Tmax [1]: 8 h; bioavailability [1]: 0.52%
630 pM,0.20 ml/mL/kg,0.09 L/kg,COc1ccc(C(=O)N(CC(C)(C)CCCCCCCCCCCCCCCCCCCC(=O)NCCC[N+](C)(CC(=O)[O-])CC(=O)O)c2cccc(C)n2)c(N2CCC(COc3cc([C@@H](CC(=O)O)C4CC4)ccn3)CC2)c1 (stereo partly drawn) [Example 14],AUC [1]: 68 µM·h; half-life [1]: 6.7 h; Cmax [1]: 164 nM; Tmax [1]: 8 h; bioavailability [1]: 0.37%
,0.10 ml/mL/kg,0.08 L/kg,COc1ccc(C(=O)N(CC(C)(C)CCCCCCCCCCCCCCCCCC(=O)NCC[N+](C)(CCCC(=O)NCCN)CCCC(=O)NCCN)c2cccc(C)n2)c(N2CCC(COc3cc([C@@H](CC(=O)O)C4CC4)ccn3)CC2)c1 [Example 17],% change in AUC over vehicle (C57BL/6 mice): −26.9%; concentration at 6 h [2]: 237 ± 2 ng/mL
2040 pM,0.67 ml/mL/kg,0.36 L/kg,"COc1ccc(C(=O)N(CC(C)(C)CCCCCCCCCCCCCCCCCCCCCC[N+]23CCN(CC2)CC3)c2cccc(C)n2)c(N2CCC(COc3cc([C@@H](CC(=O)O)C4CC4)ccn3)CC2)c1 [Example 21, (S)-1-(24-(2-(4-(((4-(2-carboxy-1-cyclopropylethyl)pyridin-2-yl)oxy)methyl)piperidin-1-yl)-4-methoxy-N-(6-methylpyridin-2-yl)benzamido)-23,23-dimethyltetracosyl)-1,4-diazabicyclo[2.2.2]octan-1-ium]",AUC [1]: 18.5 µM·h; half-life [1]: 7.2 h; Cmax [1]: 37 nM; Tmax [1]: 6.7 h; bioavailability [1]: 0.34%
1150 pM,,,COc1ccc(C(=O)N(CC(C)(C)CCCCCCCCCCCCCCCCCC[N+]2(C)CCN(C)CC2)c2cccc(C)n2)c(N2CCC(COc3cc([C@@H](CC(=O)O)C4CC4)ccn3)CC2)c1 [Example 24],
450 pM,,,COc1ccc(C(=O)N(CC(C)(C)CCCCCCCCCCCCCCCCCC[N+](C)(C)C)c2cccc(C)n2)c(N2CCC(COc3cc([C@@H](CC(=O)O)C4CC4)ccn3)CC2)c1 [Example 25],
360 pM,,,CC[N+](CC)(CC)CCCCCCCCCCCCCCCCCCC(C)(C)CN(C(=O)c1ccc(OC)cc1N1CCC(COc2cc([C@@H](CC(=O)O)C3CC3)ccn2)CC1)c1cccc(C)n1 [Example 26],
710 pM,,,COc1ccc(C(=O)N(CC(C)(C)CCn2cc(CCCCCCCCCCCCCCCCCC(=O)NCCNC(=O)C(CCCCN(CCCN)CCCN)NCCCN)nn2)c2cccc(C)n2)c(N2CCC(COc3cc([C@@H](CC(=O)O)C4CC4)ccn3)CC2)c1 (stereo partly drawn) [Example 27],
490 pM,,,COc1ccc(C(=O)N(CC(C)(C)CCCCCCCCCCCCCCCCCC(=O)NCCCC[N+]23CCN(CC2)CC3)c2cccc(C)n2)c(N2CCC(COc3cc([C@@H](CC(=O)O)C4CC4)ccn3)CC2)c1 [Example 28],
320 pM,,,COc1ccc(C(=O)N(CC(C)(C)CCCCCCCCCCCCCCCCCC(=O)NCCCC[N+](C)(C)C)c2cccc(C)n2)c(N2CCC(COc3cc([C@@H](CC(=O)O)C4CC4)ccn3)CC2)c1 [Example 29],
430 pM,,,CC[N+](CC)(CC)CCCCNC(=O)CCCCCCCCCCCCCCCCCC(C)(C)CN(C(=O)c1ccc(OC)cc1N1CCC(COc2cc([C@@H](CC(=O)O)C3CC3)ccn2)CC1)c1cccc(C)n1 [Example 30],
163000 pM,,,COc1ccc(C(=O)N(CC(C)(C)CCCCCCCCCCCCCCCCCC(=O)NCc2ccccc2)c2cccc(C)n2)c(N2CCC(COc3cc([C@@H](CC(=O)O)C4CC4)ccn3)CC2)c1 [Example 31],
385000 pM,,,CCCCNC(=O)CCCCCCCCCCCCCCCCCC(C)(C)CN(C(=O)c1ccc(OC)cc1N1CCC(COc2cc([C@@H](CC(=O)O)C3CC3)ccn2)CC1)c1cccc(C)n1 [Example 32],
> 152000 pM,,,COc1ccc(C(=O)N(CC(C)(C)CCn2cc(CCCCCCCCCCCCCCCCCC(=O)O)nn2)c2cccc(C)n2)c(N2CCC(COc3cc([C@@H](CC(=O)O)C4CC4)ccn3)CC2)c1 [Example 33],
630 pM,,,COc1ccc(C(=O)N(CC(C)(C)CCCCCCCCCCCCCCCCCC(=O)NCCC[N+](C)(CC(=O)[O-])CC(=O)O)c2cccc(C)n2)c(N2CCC(COc3cc([C@@H](CC(=O)O)C4CC4)ccn3)CC2)c1 (stereo partly drawn) [Example 35],
780 pM,,,COc1ccc(C(=O)N(CC(C)(C)CCCCCCCCCCCCCCCCCC(=O)NCCC[N+](C)(C)CCCS(=O)(=O)[O-])c2cccc(C)n2)c(N2CCC(COc3cc([C@@H](CC(=O)O)C4CC4)ccn3)CC2)c1 [Example 36],

SMILES,EC50 (GPR40),Cl [1],Vd [1],also measured
"COc1ccc(C(=O)N(CC(C)(C)CCCCCCCCCCCCCCCCCCNC(=O)C[N+]23CCN(CC2)CC3)c2cccc(C)n2)c(N2CCC(COc3cc([C@@H](CC(=O)O)C4CC4)ccn3)CC2)c1 [Example 23, (S)-1-(2-((20-(2-(4-(((4-(2-carboxy-1-cyclopropylethyl)pyridin-2-yl)oxy)methyl)piperidin-1-yl)-4-methoxy-N-(6-methylpyridin-2-yl)benzamido)-19,19-dimethylicosyl)amino)-2-oxoethyl)-1,4-diazabicyclo[2.2.2]octan-1-ium trifluoroacetate]",2800 pM,,,
